The values below come from patent publication US11542273B2, “Amide compound having bet proteolysis-inducing action and medicinal application thereof” (MITSUBISHI TANABE PHARMA CORPORATION, priority 2018, dated 2023).

For one experiment, the target named is BRD4 protein (Homo sapiens (Human), UniProt O60885). Description: BRD4 protein degradation inducing action in cancer cells (immunofluorescence, Operetta). Type of experiment: cell-based. Particulars: LNCaP cells, 6 hr treatment, fluorescence intensity. The method, then:
The degradation inducing action of the compound of the present invention on BRD4 protein in cancer cells was evaluated in vitro using human prostate cancer LNCaP cells. LNCaP cells were suspended in 10% FBS/RPMI1640, seeded in a 96 well Cell carrier plate (Perkin Elmer) and cultured at 5% CO2, 37° C. overnight. A test compound dissolved in DMSO was diluted with 10% FBS/RPMI1640 and added and the cells were further cultured for 6 hr. After culturing, the cells were immobilized with 4% para-formaldehyde/PBS and further subjected to a permeation treatment with 0.25% Triton X-100/PBS. Thereafter, the cells were blocked with 10% BSA/PBS, a solution containing Anti-Brd4 antibody (Abcam) or Anti-BRD4 (Sigma-Aldrich) as the primary antibody was added and the cells were incubated at 4° C. overnight. Thereafter, as the secondary antibody, a solution containing secondary antibody A shown below was added to Example compounds 1-190, 223 and 224, and a solution containing secondary antibody B shown below was added to Example compounds 191-222, and 0.5 μg/mL Hoechst 33342 (Sigma-Aldrich) and 14 μM Acti-Stain 555 Fluorescent Phalloidin (Cytoskeleton) were further added. After incubation for 1 hr, BRD4 protein amount was measured by Operetta (Perkin Elmer) as fluorescence intensity.
• Anti-Rabbit IgG(H+L), F(ab′)2 Fragment (Alexa Fluor 488 Conjugate) (Cell Signaling Technology), fluorescence intensity was measured at excitation: 495 nm, emission: 519 nm. Secondary Antibody B • Goat anti-Rabbit IgG(H+L) Cross-Adserbed Secondary Antibody (Alexa Fluor 546) (Thermo Fisher Scientific) fluorescence intensity was measured at excitation: 560 nm, emission: 572 nm.
The BRD4 protein degradation inducing activity of the compound of the present invention in LNCaP cells is shown in DC50 value in Table 3. The DC50 value is a concentration of the compound showing 50% fluorescence intensity when the fluorescence intensity thereof under compound untreated condition is 100%. It was calculated from the straight line connecting the fluorescence intensity at two points enclosing the 50% fluorescence intensity and the compound concentration.

The subject of experiment [1] is human prostate cancer LNCaP cells. Description: Cytotoxic action on cancer cells (WST-8, 96 hr). In kind it is cell-based. The settings on record: Homo sapiens, LNCaP, 96 h, read-out: LNCaP cytotoxic activity: IC50. Here is the method: The cytotoxic action of the compound of the present invention against human cancer cells was evaluated in vitro. In this experiment, (+)-JQ1 (Nature volume 468, pages 1067-1073 (23 Dec. 2010)) known to have an inhibitory activity on the binding of BRD4 protein and a ligand therefor was used as a positive control drug. Respective cells were suspended in 10% FBS/RPMI1640, seeded in a 96 well plate and cultured at 5% CO2, 37° C. overnight. A test compound dissolved in DMSO was diluted with 10% FBS/RPMI1640 and added and the cells were further cultured for 96 hr. After culturing, the viable cell number was measured using a cell number measurement WST-8 kit (Kishida Chemical Co., Ltd.). As a control, the measurement was performed under conditions free of the test compound. The cytotoxic activity of the compound of the present invention against human prostate cancer LNCaP cells is shown in IC50 value in Table 1. […] It was calculated from the straight line connecting the cell survival rate at two points enclosing the 50% cell survival rate and the compound concentration. In addition, the cytotoxic activity against respective cancer cells of human acute myeloid leukemia MV-4-11 cell, human chronic myeloid leukemia K562 cell, human multiple myeloma MM.1S cell, human diffuse large B-cell lymphoma SU-DHL-6 cell, human T-cell leukemia Jurkat cells, human Burkitt lymphoma Raji cell, human castration-resistant prostate cancer PC-3 cell, human ovarian cancer A2780 cell, human bladder cancer 5637 cell, human breast cancer ZR-75-1 cell, human triple negative breast cancer MDA-MB-231 cell, human uterine sarcoma MES-SA cell, human gastric cancer SNU-16 cell, human non-small cell lung cancer NCI-H1975 cell, human small cell lung cancer NCI-H82 cell, human large cell lung cancer NCI-H460 cell, human colorectal cancer HCT116 cell, human glioma U-87 MG cell, human pancreatic cancer AsPC-1 cell, and human liver cancer Hep G2 cell is shown in IC50 value in Table 2.
(In general: Formazan colour is commonly taken as a measure of viable cells.)

Take `COC(=O)C[C@@H]1N=C(c2ccc(-c3ccc(C(=O)N[C@H](C(=O)N4C[C@H](O)C[C@H]4C(=O)NCc4ccc(-c5ocnc5C)cc4)C(C)(C)C)cc3)cc2)c2c(sc(C)c2C)-n2c(C)nnc21` [Example 218, methyl {(6S)-4-[4′-({(2S)-1-[(2S,4R)-4-hydroxy-2-({[4-(4-methyl-1,3-oxazol-5-yl)phenyl]methyl}carbamoyl)pyrrolidin-1-yl]-3,3-dimethyl-1-oxobutan-2-yl}carbamoyl) [1,1′-biphenyl]-4-yl]-2,3,9-trimethyl-6H-thieno [3,2-f][1,2,4]triazolo [4,3-a] [1,4]diazepin-6-yl}acetate]: the DC50 on BRD4 protein stood at 0.41 nM. Also, the half-inhibitory concentration (IC50) in experiment [1] came out at 0.37 nM.
The corresponding values for `COC(=O)C[C@@H]1N=C(c2ccc(-c3ccc(C(=O)N[C@H](C(=O)N4C[C@H](O)C[C@H]4C(=O)N[C@@H](C)c4ccc(-c5scnc5C)cc4)C(C)(C)C)s3)cc2)c2c(sc(C)c2C)-n2c(C)nnc21` [Example 141, methyl [(6S)-4-{4-[5-({(2S)-1-[(2S,4R)-4-hydroxy-2-({(1S)-1-[4-(4-methyl-1,3-thiazol-5-yl)phenyl]ethyl}carbamoyl)pyrrolidin-1-yl]-3,3-dimethyl-1-oxobutan-2-yl}carbamoyl)thiophen-2-yl]phenyl}-2,3,9-trimethyl-6H-thieno[3,2-f][1,2,4]triazolo[4,3-a][1,4]diazepin-6-yl]acetate] are 0.72 nM and 0.38 nM.
Taken in the same sequence, the figures for `COC(=O)C[C@@H]1N=C(c2ccc(-c3ccc(NCC(=O)N[C@H](C(=O)N4C[C@H](O)C[C@H]4C(=O)N[C@@H](C)c4ccc(-c5scnc5C)cc4)C(C)(C)C)cc3)cc2)c2c(sc(C)c2C)-n2c(C)nnc21` [Example 45, methyl [(6S)-4-(4′-{[2-({(2S)-1-[(2S,4R)-4-hydroxy-2-({(1S)-1-[4-(4-methyl-1,3-thiazol-5-yl)phenyl]ethyl}carbamoyl)pyrrolidin-1-yl]-3,3-dimethyl-1-oxobutan-2-yl}amino)-2-oxoethyl]amino}[1,1′-biphenyl]-4-yl)-2,3,9-trimethyl-6H-thieno[3,2-f][1,2,4]triazolo[4,3-a] [1,4]diazepin-6-yl]acetate] were 0.051 nM and 0.32 nM.
`COC(=O)C[C@@H]1N=C(c2ccc(-c3ccc(SCC(=O)N[C@H](C(=O)N4C[C@H](O)C[C@H]4C(=O)N[C@@H](C)c4ccc(-c5scnc5C)cc4)C(C)(C)C)cc3)cc2)c2c(sc(C)c2C)-n2c(C)nnc21` [Example 53, methyl [(6S)-4-(4′-{[2-({(2S)-1-[(2S,4R)-4-hydroxy-2-({(1S)-1-[4-(4-methyl-1,3-thiazol-5-yl)phenyl]ethyl}carbamoyl)pyrrolidin-1-yl]-3,3-dimethyl-1-oxobutan-2-yl}amino)-2-oxoethyl]sulfanyl}[1,1′-biphenyl]-4-yl)-2,3,9-trimethyl-6H-thieno[3,2-f][1,2,4]triazolo[4,3-a] [1,4]diazepin-6-yl]acetate] displayed a 50% degradation concentration (DC50) on BRD4 protein of 0.091 nM. For the same compound, the IC50 in experiment [1] stood at 0.2 nM.
For `COC(=O)C[C@@H]1N=C(c2ccc(Nc3cccc(OCC(=O)N[C@H](C(=O)N4C[C@H](O)C[C@H]4C(=O)N[C@@H](C)c4ccc(-c5scnc5C)cc4)C(C)(C)C)c3)cc2)c2c(sc(C)c2C)-n2c(C)nnc21` [Example 47, methyl [(6S)-4-(4-{3-[2-({(2S)-1-[(2S,4R)-4-hydroxy-2-({(1S)-1-[4-(4-methyl-1,3-thiazol-5-yl)phenyl]ethyl}carbamoyl)pyrrolidin-1-yl]-3,3-dimethyl-1-oxobutan-2-yl}amino)-2-oxoethoxy]anilino}phenyl)-2,3,9-trimethyl-6H-thieno[3,2-f][1,2,4]triazolo[4,3-a][1,4]diazepin-6-yl]acetate], at BRD4 protein, it took 0.45 nM to reach half-maximal degradation (DC50). Moreover, in experiment [1], the 50% inhibitory concentration (IC50) worked out at 0.42 nM.
The corresponding values for `COC(=O)C[C@@H]1N=C(c2ccc(-c3ccc4oc(C(=O)N[C@H](C(=O)N5C[C@H](O)C[C@H]5C(=O)NCc5ccc(-c6scnc6C)cc5)C(C)(C)C)nc4c3)cc2)c2c(sc(C)c2C)-n2c(C)nnc21` [Example 171, methyl [(6S)-4-{4-[2-({(2S)-1-[(2S,4R)-4-hydroxy-2-({[4-(4-methyl-1,3-thiazol-5-yl)phenyl]methyl}carbamoyl)pyrrolidin-1-yl]-3,3-dimethyl-1-oxobutan-2-yl}carbamoyl)-1,3-benzoxazol-5-yl]phenyl}-2,3,9-trimethyl-6H-thieno[3,2-f][1,2,4]triazolo[4,3-a][1,4]diazepin-6-yl]acetate] are 0.16 nM and 0.08 nM.
Taken in the same sequence, the figures for `COC(=O)C[C@@H]1N=C(c2ccc(-c3ccc(COCC(=O)N[C@H](C(=O)N4C[C@H](O)C[C@H]4C(=O)N[C@@H](C)c4ccc(-c5scnc5C)cc4)C(C)(C)C)cc3)cc2)c2c(sc(C)c2C)-n2c(C)nnc21` [Example 39, methyl [(6S)-4-(4′-{[2-({(2S)-1-[(2S,4R)-4-hydroxy-2-({(1S)-1-[4-(4-methyl-1,3-thiazol-5-yl)phenyl]ethyl}carbamoyl)pyrrolidin-1-yl]-3,3-dimethyl-1-oxobutan-2-yl}amino)-2-oxoethoxy]methyl}[1,1′-biphenyl]-4-yl)-2,3,9-trimethyl-6H-thieno[3,2-f][1,2,4]triazolo[4,3-a] [1,4]diazepin-6-yl]acetate] were 0.013 nM and 0.071 nM.
Turning to `COC(=O)C[C@@H]1N=C(c2ccc(N3CC[C@H](C(=O)NCCOc4ccc5oc(C(=O)N[C@H](C(=O)N6C[C@H](O)C[C@H]6C(=O)N[C@@H](C)c6ccc(-c7scnc7C)cc6)C(C)(C)C)cc5c4)C3)cc2)c2c(sc(C)c2C)-n2c(C)nnc21` [Example Compound 68, methyl [(6S)-4-(4-{(3S)-3-[(2-{[2-({(2S)-1-[(2S,4R)-4-hydroxy-2-({(1S)-1-[4-(4-methyl-1,3-thiazol-5-yl)phenyl]ethyl}carbamoyl)pyrrolidin-1-yl]-3,3-dimethyl-1-oxobutan-2-yl}carbamoyl)-1-benzofuran-5-yl]oxy}ethyl)carbamoyl]pyrrolidin-1-yl}phenyl)-2,3,9-trimethyl-6H-thieno[3,2-f][1,2,4]triazolo[4,3-a][1,4]diazepin-6-yl]acetate], the DC50 on BRD4 protein amounted to 0.46 nM. Besides, in experiment [1], the IC50 is 0.52 nM.
The corresponding values for `COC(=O)C[C@@H]1N=C(c2ccc(-c3ccc(O[C@H]4C[C@@H](C(=O)N[C@H](C(=O)N5C[C@H](O)C[C@H]5C(=O)N[C@@H](C)c5ccc(-c6scnc6C)cc5)C(C)(C)C)C4)nc3)cc2)c2c(sc(C)c2C)-n2c(C)nnc21` [Example 162, methyl {(6S)-4-[4-(6-{[cis-3-({(2S)-1-[(2S,4R)-4-hydroxy-2-({(1S)-1-[4-(4-methyl-1,3-thiazol-5-yl)phenyl]ethyl}carbamoyl)pyrrolidin-1-yl]-3,3-dimethyl-1-oxobutan-2-yl}carbamoyl)cyclobutyl]oxy}pyridin-3-yl)phenyl]-2,3,9-trimethyl-6H-thieno[3,2-f][1,2,4]triazolo[4,3-a] [1,4]diazepin-6-yl}acetate] are 0.3 nM and 0.37 nM.
`Cc1ncsc1-c1ccc([C@H](C)NC(=O)[C@@H]2C[C@@H](O)CN2C(=O)[C@@H](NC(=O)COc2ccc(-c3ccc(C4=N[C@@H](C)c5nnc(C)n5-c5sc(C)c(C)c54)cc3)cc2)C(C)(C)C)cc1` [Example 33, (2S,4R)-1-{(2S)-3,3-dimethyl-2-[2-({4′-[(6S)-2,3,6,9-tetramethyl-6H-thieno[3,2-f][1,2,4]triazolo[4,3-a] [1,4]diazepin-4-yl][1,1′-biphenyl]-4-yl}oxy)acetamido]butanoyl}-4-hydroxy-N-{(1S)-1-[4-(4-methyl-1,3-thiazol-5-yl)phenyl]ethyl}pyrrolidine-2-carboxamide] came in with a DC50 at BRD4 protein of 0.38 nM. Besides, the half-inhibitory concentration (IC50) in experiment [1] was 0.26 nM.

One may read the DC50 as the midpoint of the concentration-degradation curve. Low values mean a more potent degrader, high ones a less potent degrader. The term IC50 denotes the concentration that inhibits the measured activity by half.
